15 compounds from ChEMBL document CHEMBL1817560, “Selectivity of kinase inhibitor fragments” (J Med Chem, 2011) can be followed below.

In assay [1] the target is Focal adhesion kinase 1 (Homo sapiens) (UniProt Q05397). As to the kind of experiment: Inhibition of FAK expressed in Escherichia coli or baculovirus-infected insect cells at 400 uM by TR-FRET assay. A general note: TR-FRET usually uses a lanthanide donor and a delayed reading to cut background.
The target of assay [2] is T1, Serine/threonine-protein kinase Sgk1 (Homo sapiens) (UniProt O00141).
T1 sequence (whole entry): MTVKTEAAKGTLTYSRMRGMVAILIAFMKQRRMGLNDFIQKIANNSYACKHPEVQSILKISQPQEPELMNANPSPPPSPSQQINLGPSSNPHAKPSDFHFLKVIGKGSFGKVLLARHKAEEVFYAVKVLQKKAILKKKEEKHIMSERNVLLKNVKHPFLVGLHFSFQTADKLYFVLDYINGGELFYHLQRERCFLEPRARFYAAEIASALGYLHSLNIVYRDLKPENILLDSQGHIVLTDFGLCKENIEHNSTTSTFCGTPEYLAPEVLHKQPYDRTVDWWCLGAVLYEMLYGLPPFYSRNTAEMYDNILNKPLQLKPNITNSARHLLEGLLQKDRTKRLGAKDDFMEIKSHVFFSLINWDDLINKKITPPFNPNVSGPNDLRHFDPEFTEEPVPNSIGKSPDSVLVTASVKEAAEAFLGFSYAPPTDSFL
As to the kind of experiment: Inhibition of SGK1 expressed in Escherichia coli or baculovirus-infected insect cells at 400 uM by IMAP assay.

Assay [3] concerns the target Epidermal growth factor receptor (Homo sapiens) (UniProt P00533). The experiment in a line: Inhibition of EGFR expressed in Escherichia coli or baculovirus-infected insect cells at 400 uM by TR-FRET assay.
Assay [4] deals with Aurora kinase B (Homo sapiens) (UniProt Q96GD4). As to the kind of experiment: Inhibition of AurB expressed in Escherichia coli or baculovirus-infected insect cells at 400 uM by IMAP assay.
Aurora kinase B (Homo sapiens), sequence (Q96GD4 whole entry): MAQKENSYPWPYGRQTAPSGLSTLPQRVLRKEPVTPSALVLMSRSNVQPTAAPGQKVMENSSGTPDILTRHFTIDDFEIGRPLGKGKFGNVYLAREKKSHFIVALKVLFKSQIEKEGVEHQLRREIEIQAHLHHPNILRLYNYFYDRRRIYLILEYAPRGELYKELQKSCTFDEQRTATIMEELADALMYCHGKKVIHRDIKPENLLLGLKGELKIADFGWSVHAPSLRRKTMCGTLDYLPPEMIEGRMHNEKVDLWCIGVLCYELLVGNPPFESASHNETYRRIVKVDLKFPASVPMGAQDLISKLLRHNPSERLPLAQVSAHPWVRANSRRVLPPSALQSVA
Assay [5] concerns the target Rho-associated protein kinase 1 (Homo sapiens) (UniProt Q13464). As to the kind of experiment: Inhibition of ROCK1 expressed in Escherichia coli or baculovirus-infected insect cells at 400 uM by IMAP assay.
Assay [6] addresses Serine/threonine-protein kinase PAK 2 (Homo sapiens) (UniProt Q13177). The experiment in a line: Inhibition of PAK2 expressed in Escherichia coli or baculovirus-infected insect cells at 400 uM by IMAP assay.
Assay [7] has as its target T2, Inhibitor of nuclear factor kappa-B kinase subunit beta (Homo sapiens) (UniProt O14920).
T2 sequence (whole entry): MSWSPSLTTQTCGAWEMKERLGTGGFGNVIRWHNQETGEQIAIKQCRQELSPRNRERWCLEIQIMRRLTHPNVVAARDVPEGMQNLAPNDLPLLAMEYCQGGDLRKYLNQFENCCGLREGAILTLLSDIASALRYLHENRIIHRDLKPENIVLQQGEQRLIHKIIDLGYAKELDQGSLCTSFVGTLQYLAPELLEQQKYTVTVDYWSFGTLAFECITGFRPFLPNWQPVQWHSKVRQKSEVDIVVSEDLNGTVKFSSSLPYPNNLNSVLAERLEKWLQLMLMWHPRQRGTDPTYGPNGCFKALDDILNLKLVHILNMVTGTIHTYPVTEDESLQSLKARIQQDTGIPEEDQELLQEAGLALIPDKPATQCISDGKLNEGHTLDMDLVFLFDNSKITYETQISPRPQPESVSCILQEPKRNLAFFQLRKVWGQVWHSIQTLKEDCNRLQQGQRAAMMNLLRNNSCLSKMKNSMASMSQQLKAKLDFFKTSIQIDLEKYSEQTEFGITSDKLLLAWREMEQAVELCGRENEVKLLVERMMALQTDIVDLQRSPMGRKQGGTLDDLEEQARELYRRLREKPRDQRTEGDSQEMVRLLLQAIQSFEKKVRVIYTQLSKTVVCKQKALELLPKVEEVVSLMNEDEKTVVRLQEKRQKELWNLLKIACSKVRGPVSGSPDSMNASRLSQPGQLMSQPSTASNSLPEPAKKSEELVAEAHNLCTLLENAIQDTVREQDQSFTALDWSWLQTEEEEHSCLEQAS
The experiment in a line: Inhibition of IKK-beta expressed in Escherichia coli or baculovirus-infected insect cells at 667 uM by TR-FRET assay.

Assay [8] deals with RAC-beta serine/threonine-protein kinase (Homo sapiens) (UniProt P31751). As to the kind of experiment: Inhibition of AKT2 expressed in Escherichia coli or baculovirus-infected insect cells using gamma-[33P]ATP at 400 uM by scintillation proximity assay.
RAC-beta serine/threonine-protein kinase (Homo sapiens), sequence (P31751 whole entry): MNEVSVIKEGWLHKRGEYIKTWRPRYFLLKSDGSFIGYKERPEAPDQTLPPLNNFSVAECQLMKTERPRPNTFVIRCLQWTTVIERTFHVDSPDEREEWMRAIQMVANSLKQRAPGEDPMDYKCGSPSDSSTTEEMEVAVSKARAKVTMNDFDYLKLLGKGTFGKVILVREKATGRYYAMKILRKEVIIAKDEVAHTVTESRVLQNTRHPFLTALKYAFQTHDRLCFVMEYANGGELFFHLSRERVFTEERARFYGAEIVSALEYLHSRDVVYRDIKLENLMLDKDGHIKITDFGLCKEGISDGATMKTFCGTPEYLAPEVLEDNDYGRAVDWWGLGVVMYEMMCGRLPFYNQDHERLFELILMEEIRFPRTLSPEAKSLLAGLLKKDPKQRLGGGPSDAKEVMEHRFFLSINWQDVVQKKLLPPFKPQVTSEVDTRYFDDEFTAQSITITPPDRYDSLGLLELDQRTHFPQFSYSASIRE
For assay [9], the target named is Tyrosine-protein kinase Fes/Fps (Homo sapiens) (UniProt P07332). As to the kind of experiment: Inhibition of FES expressed in Escherichia coli or baculovirus-infected insect cells using ATP as substrate at 400 uM by fluorescence polarization assay. For orientation: Polarisation of emitted light reports the rotation of a fluorescent probe.
Tyrosine-protein kinase Fes/Fps (Homo sapiens), sequence (P07332 whole entry): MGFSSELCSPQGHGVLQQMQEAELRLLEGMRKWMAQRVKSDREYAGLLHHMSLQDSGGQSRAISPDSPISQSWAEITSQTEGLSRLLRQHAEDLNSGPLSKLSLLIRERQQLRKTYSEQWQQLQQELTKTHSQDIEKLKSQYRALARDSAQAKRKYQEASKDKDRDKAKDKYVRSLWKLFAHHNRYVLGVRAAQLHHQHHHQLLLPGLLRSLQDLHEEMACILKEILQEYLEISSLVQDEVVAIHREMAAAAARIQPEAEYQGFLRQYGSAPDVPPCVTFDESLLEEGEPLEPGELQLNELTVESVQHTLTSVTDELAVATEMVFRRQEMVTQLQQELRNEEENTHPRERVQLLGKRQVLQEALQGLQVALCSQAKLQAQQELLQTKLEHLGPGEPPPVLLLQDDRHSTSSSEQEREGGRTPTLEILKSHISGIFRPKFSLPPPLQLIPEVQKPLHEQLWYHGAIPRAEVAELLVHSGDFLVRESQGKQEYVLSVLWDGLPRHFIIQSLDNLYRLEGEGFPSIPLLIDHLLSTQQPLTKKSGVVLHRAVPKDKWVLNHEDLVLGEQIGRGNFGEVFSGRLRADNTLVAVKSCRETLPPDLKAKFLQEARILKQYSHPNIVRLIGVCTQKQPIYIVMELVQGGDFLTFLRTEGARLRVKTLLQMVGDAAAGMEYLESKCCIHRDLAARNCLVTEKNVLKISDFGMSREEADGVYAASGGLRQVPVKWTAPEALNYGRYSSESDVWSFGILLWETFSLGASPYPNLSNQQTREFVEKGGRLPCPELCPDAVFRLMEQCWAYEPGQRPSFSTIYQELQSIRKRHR
For assay [10], the target named is Serine/threonine-protein kinase pim-1 (Homo sapiens) (UniProt P11309). As to the kind of experiment: Inhibition of PIM1 expressed in Escherichia coli or baculovirus-infected insect cells at 400 uM by IMAP assay.
Serine/threonine-protein kinase pim-1 (Homo sapiens), sequence (P11309 whole entry, looked up): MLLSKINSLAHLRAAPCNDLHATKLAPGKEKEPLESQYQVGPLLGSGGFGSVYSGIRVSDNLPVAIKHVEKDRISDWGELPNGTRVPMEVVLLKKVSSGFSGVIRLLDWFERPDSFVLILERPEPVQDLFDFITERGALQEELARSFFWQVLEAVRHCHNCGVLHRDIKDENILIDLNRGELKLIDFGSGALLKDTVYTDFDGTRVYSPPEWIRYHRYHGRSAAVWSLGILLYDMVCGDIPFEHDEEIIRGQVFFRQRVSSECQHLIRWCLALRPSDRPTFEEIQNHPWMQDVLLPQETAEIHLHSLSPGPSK
Assay [11] deals with Insulin-like growth factor 1 receptor (Homo sapiens) (UniProt P08069). The experiment in a line: Inhibition of IGF1R expressed in Escherichia coli or baculovirus-infected insect cells at 400 uM by TR-FRET assay.

Focal adhesion kinase 1 (Homo sapiens), sequence (Q05397 2-1052 limits assumed): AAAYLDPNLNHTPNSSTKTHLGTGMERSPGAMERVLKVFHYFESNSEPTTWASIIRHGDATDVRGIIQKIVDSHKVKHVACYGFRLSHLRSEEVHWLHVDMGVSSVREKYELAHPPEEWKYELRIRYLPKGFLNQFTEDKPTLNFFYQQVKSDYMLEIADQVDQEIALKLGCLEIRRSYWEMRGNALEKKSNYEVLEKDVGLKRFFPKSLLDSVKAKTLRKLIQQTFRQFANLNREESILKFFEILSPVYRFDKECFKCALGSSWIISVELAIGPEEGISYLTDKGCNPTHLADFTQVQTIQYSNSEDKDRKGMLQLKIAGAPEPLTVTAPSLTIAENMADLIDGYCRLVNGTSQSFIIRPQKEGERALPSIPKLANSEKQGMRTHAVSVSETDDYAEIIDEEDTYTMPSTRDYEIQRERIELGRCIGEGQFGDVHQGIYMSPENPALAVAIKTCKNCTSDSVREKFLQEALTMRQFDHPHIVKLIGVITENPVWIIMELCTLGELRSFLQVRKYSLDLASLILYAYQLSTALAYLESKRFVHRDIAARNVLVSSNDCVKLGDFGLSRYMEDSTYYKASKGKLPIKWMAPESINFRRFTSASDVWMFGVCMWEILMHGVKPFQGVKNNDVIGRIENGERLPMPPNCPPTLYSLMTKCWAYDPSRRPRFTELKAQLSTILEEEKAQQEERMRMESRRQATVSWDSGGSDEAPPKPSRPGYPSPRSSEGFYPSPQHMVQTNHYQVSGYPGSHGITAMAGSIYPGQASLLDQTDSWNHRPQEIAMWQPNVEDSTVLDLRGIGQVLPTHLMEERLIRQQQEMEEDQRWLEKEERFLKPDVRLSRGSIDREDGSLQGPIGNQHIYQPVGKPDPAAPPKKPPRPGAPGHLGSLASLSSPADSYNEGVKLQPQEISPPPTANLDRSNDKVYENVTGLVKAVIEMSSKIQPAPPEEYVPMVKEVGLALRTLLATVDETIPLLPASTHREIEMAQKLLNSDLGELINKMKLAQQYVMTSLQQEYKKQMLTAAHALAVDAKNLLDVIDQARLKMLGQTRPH
Epidermal growth factor receptor (Homo sapiens), sequence (P00533 whole entry): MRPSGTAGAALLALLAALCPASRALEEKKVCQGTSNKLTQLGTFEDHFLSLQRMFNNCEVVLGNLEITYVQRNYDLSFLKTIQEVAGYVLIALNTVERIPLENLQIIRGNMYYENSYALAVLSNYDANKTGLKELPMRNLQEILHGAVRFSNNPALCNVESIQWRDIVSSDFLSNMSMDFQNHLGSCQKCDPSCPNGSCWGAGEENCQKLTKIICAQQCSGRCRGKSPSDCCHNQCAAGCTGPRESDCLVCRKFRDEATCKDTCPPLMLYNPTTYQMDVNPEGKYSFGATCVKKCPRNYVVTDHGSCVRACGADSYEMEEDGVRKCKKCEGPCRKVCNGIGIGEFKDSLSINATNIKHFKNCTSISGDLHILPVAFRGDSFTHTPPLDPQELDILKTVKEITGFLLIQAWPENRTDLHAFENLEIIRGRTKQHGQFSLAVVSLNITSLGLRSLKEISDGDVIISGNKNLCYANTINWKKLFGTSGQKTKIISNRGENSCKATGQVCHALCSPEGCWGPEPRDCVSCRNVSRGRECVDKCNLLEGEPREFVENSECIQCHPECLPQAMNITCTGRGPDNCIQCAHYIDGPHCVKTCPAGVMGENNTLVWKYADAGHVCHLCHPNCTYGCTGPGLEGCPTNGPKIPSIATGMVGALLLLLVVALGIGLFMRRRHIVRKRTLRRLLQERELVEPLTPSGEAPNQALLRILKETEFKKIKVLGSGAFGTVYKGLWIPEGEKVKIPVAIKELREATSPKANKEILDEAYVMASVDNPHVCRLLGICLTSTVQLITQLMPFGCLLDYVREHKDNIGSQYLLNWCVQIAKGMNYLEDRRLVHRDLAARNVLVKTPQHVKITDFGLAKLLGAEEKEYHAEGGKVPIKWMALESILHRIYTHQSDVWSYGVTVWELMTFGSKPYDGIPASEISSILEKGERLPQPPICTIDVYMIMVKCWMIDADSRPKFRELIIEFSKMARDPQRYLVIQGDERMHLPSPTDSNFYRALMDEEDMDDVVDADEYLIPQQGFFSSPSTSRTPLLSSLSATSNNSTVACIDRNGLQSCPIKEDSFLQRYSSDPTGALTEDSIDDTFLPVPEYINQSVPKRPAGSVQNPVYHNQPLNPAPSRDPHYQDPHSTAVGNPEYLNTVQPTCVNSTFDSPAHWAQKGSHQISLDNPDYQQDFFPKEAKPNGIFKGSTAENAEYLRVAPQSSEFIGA
Serine/threonine-protein kinase PAK 2 (Homo sapiens), sequence (Q13177 whole entry): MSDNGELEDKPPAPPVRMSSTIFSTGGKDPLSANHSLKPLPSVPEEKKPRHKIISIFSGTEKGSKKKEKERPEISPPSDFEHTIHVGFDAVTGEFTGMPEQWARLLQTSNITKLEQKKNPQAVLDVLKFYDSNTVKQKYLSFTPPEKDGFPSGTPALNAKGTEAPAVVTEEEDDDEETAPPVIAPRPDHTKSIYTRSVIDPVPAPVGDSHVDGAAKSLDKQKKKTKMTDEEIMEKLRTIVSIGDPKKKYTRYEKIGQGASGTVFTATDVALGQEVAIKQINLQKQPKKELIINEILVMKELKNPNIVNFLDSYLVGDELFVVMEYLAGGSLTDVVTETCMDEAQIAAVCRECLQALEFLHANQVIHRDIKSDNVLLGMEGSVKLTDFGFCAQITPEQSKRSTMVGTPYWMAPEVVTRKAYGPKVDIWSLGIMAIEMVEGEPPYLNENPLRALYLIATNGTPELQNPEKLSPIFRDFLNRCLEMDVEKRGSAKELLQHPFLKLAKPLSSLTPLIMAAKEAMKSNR

With `CC(C)(C)c1cc(NC(=O)Nc2ccccc2)no1`, the inhibition was determined as 3% in [1]; 10% in [2]; 4% in assay [3]; 31% in assay [4]; 9% in assay [5]; 0% in assay [6]. In addition, the inhibition in assay [7] stood at 2%; in [8] it was 15%; in [9], 3%; in assay [10] it was 19%; in [11], 0%.

For `c1ccc(-c2cnc3nccnn23)cc1`, the inhibition turned out to be 0% in assay [1]; 0% in [2]; 8% in assay [3]; 0% in assay [4]; 0% in [5]; 0% in assay [6]. For the same compound, the inhibition in assay [7] was determined as 0%; in [8] it was 8%; in assay [9], 70%; in [10], 39%; in assay [11] it was 0%.

For the compound `Cc1ccc(NC(=O)Nc2cc(C(C)(C)C)nn2-c2ccccc2)cc1`, the inhibition in assay [1] worked out at 6%; in [2], 7%; in assay [3], 0%; in [4] it was 0%; in [5], 6%; in assay [6], 0%. For the same compound, the inhibition is 3% in assay [7]; 12% in [8]; 3% in [9]; 1% in assay [10]; 5% in assay [11].

In the case of `O=C(Nc1ccccc1)Nc1ccccc1`, the inhibition in [1] worked out at 30%; in assay [2], 15%; in [3] it was 0%; in assay [4] it was 30%; in assay [5], 5%; in assay [6], 5%. Besides, the inhibition in assay [7] came out at 0%; in [8], 16%; in assay [9], 13%; in assay [10] it was 12%; in assay [11] it was 6%.

Take `Nc1n[nH]c2ncccc12`: the inhibition in assay [1] stood at 7%; in assay [2], 63%; in assay [3], 18%; in [4] it was 100%; in assay [5] it was 46%; in [6], 7%. Moreover, the inhibition turned out to be 65% in assay [7], 14% in assay [8], 12% in assay [9] and 21% in assay [10].

`Cc1ccc(C(=O)NC2CC2)cc1F`: the inhibition in assay [1] came out at 6%; in [2], 17%; in [3], 5%; in assay [4] it was 15%; in [5] it was 3%; in assay [6], 2%. The inhibition is 0% in assay [7], 9% in assay [8], 1% in assay [9] and 58% in assay [10].

Consider `c1n[nH]c2c1CCCC2`, for which the inhibition is 1% in assay [1]; 27% in assay [2]; 25% in assay [3]; 22% in assay [4]; 25% in assay [5]; 3% in assay [6]. Further, the inhibition in assay [7] stood at 0%; in assay [8] it was 13%; in assay [9] it was 14%; in [10] it was 5%; in [11], 15%.

Consider `Cc1ccc(NC(=O)Nc2cccc(C(F)(F)F)c2)cc1`, for which the inhibition was found to be 4% in assay [1]; 8% in [2]; 0% in assay [3]; 12% in assay [4]; 7% in [5]; 0% in assay [6]. The inhibition in [7] worked out at 0%; in assay [8], 0%; in [9], 0%; in assay [10] it was 13%; in assay [11], 0%.

Turning to `O=C(Nc1ccccc1)Nc1cccc(C(F)(F)F)c1`, the inhibition in [1] is 6%; in [2], 8%; in [3], 4%; in [4] it was 12%; in assay [5] it was 8%; in assay [6], 5%. The inhibition in [7] is 0%; in [8] it was 6%; in assay [9], 6%; in [10], 10%; in assay [11], 1%.

As to `Nc1ccc2ncc(-c3ccccc3)n2n1`, the inhibition in assay [1] is 33%; in assay [2], 90%; in [3] it was 36%; in assay [4], 97%; in [5], 93%; in assay [6], 32%. Moreover, the inhibition in [7] was 57%; in [8] it was 39%; in assay [9], 68%; in assay [10], 89%; in assay [11], 92%.

Regarding `Nc1ncccc1OCc1ccccc1`, the inhibition in [1] turned out to be 6%; in assay [2] it was 52%; in assay [3], 9%; in assay [4] it was 77%; in [5], 64%; in assay [6] it was 17%. For the same compound, the inhibition in assay [7] was determined as 0%; in assay [8], 25%; in assay [9] it was 100%; in assay [10] it was 54%; in assay [11], 20%.

As to `c1cnc2[nH]ccc2c1`, the inhibition in assay [1] was 3%; in [2], 62%; in assay [3] it was 0%; in assay [4], 94%; in [5], 76%; in [6], 4%. Also, the inhibition was determined as 29% in assay [7]; 19% in assay [8]; 9% in [9]; 6% in [10]; 23% in assay [11].

Consider `Nc1[nH]cnc2ncnc1-2`, for which the inhibition in [1] was determined as 5%; in assay [2] it was 76%; in [3], 11%; in assay [4], 99%; in [5] it was 80%; in [6], 36%. For the same compound, the inhibition was found to be 22% in assay [7]; 7% in assay [8]; 20% in assay [9]; 20% in assay [10]; 44% in assay [11].

Regarding `c1ccc(Nc2ccccc2)cc1`, the inhibition in assay [1] was 0%; in [2], 3%; in assay [3], 5%; in assay [5], 0%; in [6], 4%; in [7], 0%. The inhibition in assay [8] is 9%; in [9], 9%; in assay [10], 17%; in [11], 0%.

As to `c1ccc2[nH]ncc2c1` [INDAZOLE], the inhibition is 3% in assay [1]; 75% in assay [2]; 0% in [3]; 81% in [4]; 80% in assay [5]; 5% in assay [6]. In addition, the inhibition in assay [7] amounted to 15%; in assay [8], 12%; in [9], 1%; in assay [10], 22%; in assay [11] it was 24%.

Usually inhibition stands for the drop in the measured response relative to a control, in per cent. A high value points to strong suppression.
